# The source made the active and inactive calls.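 Rule for the calls: active = AC50 no more than ten times the top concentration tested, that is within one log above it; inconclusive = flat curve fit with activity between 30% and 70%, or invalid poor fit; inactive = AC50 beyond ten times the top tested dose.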
# Tested on: S. cerevisiae Mot1-301 ts growth rescue, BacTiter-Glo ATP luminescence
# Assay: growth rescue of Mot1-301 ts yeast, confirmation, SUMOylation pathway inhibitor project, whole organism, S. cerevisiae, Mot1-301 ts mutant, luminescence, dose retest (AID 463204);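 note: growth at restrictive 38.5 degrees C of Mot1-301 OY566 strain; actives raise luminescence by restoring growth of the ts mutant at high temperature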
row,SMILES,AC50
1,O=c1nc2ccc(Cl)cn2c2ccc(S(=O)(=O)N3CCOCC3)cc12,> 42 µM (inactive)
2,Cc1ccnc(NC(=O)CNC(=O)c2ccc(Br)o2)c1,> 42 µM (inactive)
3,CN(C(=O)C1CCCO1)c1nnc(-c2cnccn2)s1 (centres undefined),> 42 µM (inactive)
4,CN(C)S(=O)(=O)c1cc(NC(=O)CSc2nn(-c3ccc(Cl)cc3)c(=S)s2)ccc1Cl,31.1 µM
5,COc1ccc2cc(C(=O)Nc3ccc(Cl)cc3)sc(=O)c2c1OC,> 42 µM (inactive)
6,CCOC(=O)CSc1nc2ccccc2c(=O)n1CC(C)C,> 42 µM (inactive)
7,COc1cccc(Nc2nc(C)nc3c2oc2ccccc23)c1,> 42 µM (inactive)
8,CNC(=O)COC(=O)c1cc(-c2ccco2)nc2ccccc12,> 42 µM (inactive)
9,C=CCNC(=O)c1cc(-c2cccnc2)nc2ccccc12,> 42 µM (inactive)
10,O=C(CCSc1nnc(-c2ccncc2)o1)Nc1ccc(Cl)cc1,> 42 µM (inactive)
11,CCn1cc(C(=O)N2CCN(c3ccc(OC)cc3)CC2)c(=O)c2cc(S(=O)(=O)N3CCOCC3)ccc21,> 42 µM (inactive)
12,N/C(=N\N=C\c1ccc(O)cc1)c1nonc1N,> 42 µM (inactive)
13,CC(=O)c1ccc2noc(-c3ccc(F)cc3)c2c1,> 42 µM (inactive)
14,CC(C)(C)NC(=O)NC(=O)CN1CCN(S(=O)(=O)c2ccc3c(c2)OCCO3)CC1,> 21 µM (inactive)
15,O=C(Oc1ccc2c(c1)OCO2)c1cccs1,> 42 µM (inactive)
16,CN(C(=O)COC(=O)c1cc2ccccc2cc1O)c1c(N)n(Cc2ccccc2)c(=O)[nH]c1=O,> 42 µM (inactive)
17,CNC(=O)Nc1cc(NC(=O)NC)cc(C(F)(F)F)c1,> 42 µM (inactive)
18,O=C(CCl)N(Cc1cc(=O)[nH]c2ccccc12)c1ccccc1,> 42 µM (inactive)
19,COc1cc2c(cc1OC)C(c1ccccc1C)CC(=O)N2 (centres undefined),> 42 µM (inactive)
20,Nc1cc[n+](CC(=O)Nc2ccccc2)cc1,> 42 µM (inactive)
21,COc1ccc(C(=O)CC(=O)C(=O)Nc2ccc(C)c(Cl)c2)cc1,> 42 µM (inactive)
22,O=C(N=C1SC2CS(=O)(=O)CC2N1c1ccc(F)c(Cl)c1)C1CC1 (centres undefined),> 42 µM (inactive)
23,N=c1sccn1CC(=O)Nc1cccc(S(N)(=O)=O)c1,> 42 µM (inactive)
24,Cc1ccc(S(=O)(=O)N(C)CC(=O)O/N=C(\N)c2ccccn2)cc1,> 42 µM (inactive)
25,Cc1ccc(-c2[nH]ncc2CNCCc2cnn(-c3ccccc3)c2)cc1C,> 42 µM (inactive)

row,SMILES,AC50
1,CC12CCC(=O)N1C(C(=O)Nc1ccccc1F)CS2 (centres undefined),> 42 µM (inactive)
2,Cc1ccc(NC(=O)Cn2c(CCC(=O)O)ccc2-c2cccs2)cc1,> 42 µM (inactive)
3,Cc1cc(NC(=O)CCC(=O)N(c2cccnc2)C(C(=O)NC2CCCC2)c2ccccc2)no1 (centres undefined),> 42 µM (inactive)
4,N#CC1=C(N)Oc2c(ccc3ccccc23)C1c1cccs1 (centres undefined),> 42 µM (inactive)
5,O=C(CSc1nc2ccc(Nc3nc(N4CCOCC4)nc(N4CCOCC4)n3)cc2s1)N1CCOCC1,> 42 µM (inactive)
6,Cc1cc(=O)oc2ccc(OC(=O)CC(C)C)cc12,> 42 µM (inactive)
7,O=C(COc1ccc(Cl)cc1)NCCCNC(=O)c1ccccn1,> 42 µM (inactive)
8,C[n+]1c(-c2ccccc2)cc(CCCCc2cc(-c3ccccc3)[n+](C)c(-c3ccccc3)c2)cc1-c1ccccc1,> 21 µM (inactive)
9,CCn1c(SCC(=O)N/N=C/c2ccccc2OCC(=O)O)nnc1-c1ccc(C(C)(C)C)cc1,32.7 µM
10,COc1cc(C)ccc1OCCCOc1ccccc1Br,> 42 µM (inactive)
11,COc1ccc(C)cc1S(=O)(=O)N1CCC(C(=O)NCCc2ccccc2)CC1,> 42 µM (inactive)
12,O=C(NCC1CCCO1)c1nn2c(C(F)(F)F)cc(-c3cc(Br)cs3)nc2c1Br (centres undefined),> 42 µM (inactive)
13,Cc1cccc(N/N=C/c2c(O)[nH]c(=S)[nH]c2=O)c1,> 42 µM (inactive)
14,CCOC(=O)N1CCN(C(=O)c2ccc(CS(=O)(=O)c3c(Cl)cccc3Cl)o2)CC1,> 42 µM (inactive)
15,COc1ccc(NC(=O)CN(c2ccc(C(C)C)cc2)S(=O)(=O)c2c(C)noc2C)cc1OC,> 42 µM (inactive)
16,Cc1nn(Cc2ccc(C(=O)Nc3ccccc3C(F)(F)F)o2)c(C)c1Br,> 42 µM (inactive)
17,Cc1ccc(N/C=C(\C#N)c2ccc(OCCCF)cc2)cc1,> 42 µM (inactive)
18,Cc1cc(C)n(CCOC(=O)C2C(C=C(Cl)Cl)C2(C)C)n1 (centres undefined),> 42 µM (inactive)
19,O=C(OCc1ccccc1)c1cccc(-c2nnn(Cc3ccccc3)n2)c1,> 42 µM (inactive)
20,CC(C)Sc1ccc(C(=O)Nc2ccc(F)cc2F)cn1,> 42 µM (inactive)
21,CCN(CC)C(=O)CSc1nnc(CNc2ccc(F)cc2)n1Cc1ccco1,> 42 µM (inactive)
22,S=C(Nc1ccccc1Cl)N1CCOCC1,> 42 µM (inactive)
23,COc1ccc(/C=N/NC(=O)c2c(C)nc3ccccn23)cc1[N+](=O)[O-],> 42 µM (inactive)
24,COc1ccc(/C=N\NC(=O)c2cc(OCC(F)(F)F)ccc2OCC(F)(F)F)cc1,> 42 µM (inactive)
25,CSc1ccc(CN2CCN(S(=O)(=O)Cc3ccccc3)CC2)cc1,> 42 µM (inactive)

row,SMILES,AC50
1,On1c(-c2ccccc2Cl)nc2ncccc21,> 42 µM (inactive)
2,CCOC(=O)Cn1c(=O)n(Cc2ccco2)c(=O)c2ccc(C(=O)NCCc3ccccc3)cc21,> 42 µM (inactive)
3,COc1ccc(-c2nc(C#N)c(NC(C)c3ccccc3)o2)cc1OC (centres undefined),> 42 µM (inactive)
4,OC1CN=C2CCCc3c2n(c2ccc(Cl)cc32)C1 (centres undefined),> 42 µM (inactive)
5,COc1ccccc1NC(=O)NCCc1c[nH]c2ccccc12,> 42 µM (inactive)
6,O=C(CN1C(=O)NC2(CCCC2)C1=O)Nc1nc2ccccc2[nH]1,> 42 µM (inactive)
7,CCn1ncc(Br)c1C(=O)Nc1ccc(OC(F)(F)F)cc1,> 42 µM (inactive)
8,CC1(C)C(C=C(Cl)Cl)C1C(=O)OCc1cccc(Oc2ccccc2)c1 (centres undefined),> 42 µM (inactive)
9,COc1ccc(C(=O)Sc2ccc(Cl)cc2)cc1OC,> 42 µM (inactive)
10,O=C1CC(=O)C(n2cncn2)C(c2ccc(Cl)cc2Cl)C1 (centres undefined),> 42 µM (inactive)
11,CC(=O)Nc1cccc(OCC(=O)NS(=O)(=O)c2ccc(C)cc2)c1,> 42 µM (inactive)
12,O=c1c2ccccc2nc(COc2ccccc2)n1/N=C/c1cn[nH]c1-c1ccccc1,> 42 µM (inactive)
13,CN/C(=C/[N+](=O)[O-])NCCSCc1ccc(CN(C)C)o1,> 42 µM (inactive)
14,O=C(OCC(=O)N1CCN(c2ccccc2)CC1)c1nc(Cl)ccc1Cl,> 42 µM (inactive)
15,COc1cc(SC)ccc1C(=O)Nc1cc(C)c(OCC(=O)N2CCOCC2)c(C)c1,> 42 µM (inactive)
16,CS(=O)(=O)c1ccc(Cl)c(C(=O)O)c1,> 42 µM (inactive)
17,O=C(Nc1ccccc1N1CCN(c2ccccc2)CC1)c1cccc(F)c1,> 42 µM (inactive)
18,Cc1ccc(CSCCNC(=O)c2ccc(NS(C)(=O)=O)cc2)cc1,> 42 µM (inactive)
19,COc1ccc(NC2CCCN(C(=O)c3csc(C)n3)C2)cc1 (centres undefined),> 42 µM (inactive)
20,CCOc1ccc(S(=O)(=O)N2CCC(C(=O)N3CCN(c4ccccc4)CC3)CC2)cc1,> 42 µM (inactive)
21,CC(=O)N1CCc2cc(S(=O)(=O)CCC(=O)N3CCN(C(=O)c4ccco4)CC3)ccc21,> 42 µM (inactive)
22,O=C(Nc1ccc(Cl)cc1)N1CCC(c2nc(-c3ccc(F)cc3)no2)CC1,> 42 µM (inactive)
23,CCOC(=O)N1CCN(C(=O)c2ccccc2-c2ccccc2)CC1,> 42 µM (inactive)
24,COc1ccccc1NC(=S)N(Cc1ccco1)Cc1cc2cccc(C)c2[nH]c1=O,> 42 µM (inactive)
25,Cc1ccc(N(CC(=O)Nc2cccc(C)c2)S(=O)(=O)c2cccc3nonc23)cc1,> 21 µM (inactive)

row,SMILES,AC50
1,O=C(O)Cc1sc(Nc2ccccc2)nc1-c1cccs1,> 42 µM (inactive)
2,O=C(COc1ccc(F)cc1Cl)N(Cc1nnc(-c2ccccc2Cl)o1)C1CC1,> 42 µM (inactive)
3,Cc1noc(C)c1S(=O)(=O)N1CCCC(C(=O)NCC2CCCO2)C1 (centres undefined),> 42 µM (inactive)
4,Clc1ccc(CONc2ncnc3nonc23)c(Cl)c1,5.49 µM
5,Cc1ccc(NC(=O)COC(=O)c2csc3c2CCC(C)C3)cc1S(=O)(=O)N1CCCCC1 (centres undefined),> 42 µM (inactive)
6,CN(C)S(=O)(=O)c1cccc(NC(=O)COc2nc3ccccc3nc2N2CCOCC2)c1,> 42 µM (inactive)
7,Cc1ccc(N2C(=O)c3cccc4c(N5CCN(C)CC5)ccc(c34)C2=O)c2cccnc12,> 42 µM (inactive)
8,Cc1n[nH]c(=O)c2c(NC(=O)COC(=O)Cc3ccc(Cl)cc3Cl)oc(C)c12,> 21 µM (inactive)
9,O=C(OCc1nnc(-c2ccccc2)o1)c1ccc([N+](=O)[O-])o1,4.12 µM
10,CC(=O)c1cccc(N2C(=NC(=O)C3CCCCC3)SC3CS(=O)(=O)CC32)c1 (centres undefined),> 42 µM (inactive)
11,CCCCC(=O)NC(=S)Nc1cccc(C(=O)O)c1,> 42 µM (inactive)
12,O=C(Cn1cnc2ccccc2c1=O)c1ccc(OC(F)F)cc1,> 42 µM (inactive)
13,COc1ccccc1CNC(=O)[C@H](C)NC(=O)C1CCN(C(=O)[C@@H](N)CC(C)C)CC1,> 42 µM (inactive)
14,CC(C)C(=O)Nc1ccc(NC(=S)NC(=O)c2ccccc2F)cc1,> 42 µM (inactive)
15,O=S(=O)(NCC1CCCO1)c1cc(Cl)ccc1Br (centres undefined),> 42 µM (inactive)
16,C[C@H]1CN=C(Nc2ccccc2)N1CCC1CCCC1,> 42 µM (inactive)
17,CC(=O)c1ccccc1C(=O)N1CCCC(N2CCN(Cc3ccc4c(c3)OCO4)CC2)C1 (centres undefined),> 42 µM (inactive)
18,CC(=O)NCc1c(Cl)cccc1-n1cccc1,> 42 µM (inactive)
19,COc1ccc(OC)c(N(CC(=O)N2CCCC2)S(=O)(=O)c2ccccc2)c1,> 42 µM (inactive)
20,O=C(NC1CCCCC1)N(Cc1cc2cc3c(cc2[nH]c1=O)OCCO3)C1CCCCC1,> 42 µM (inactive)
21,O=C(OCC(=O)N1CCN(Cc2ccccc2)CC1)c1ccc(Cl)cc1,> 42 µM (inactive)
22,Cc1cc(C(=O)NN)n[nH]1,> 42 µM (inactive)
23,Cc1ccc(C(=O)O)cc1N=Cc1cc(Br)cc(Br)c1O,2.45 µM
24,COc1ccccc1CNc1ncnc2nc[nH]c12,> 42 µM (inactive)

# From PubChem BioAssay AID463204 (Broad Institute, 2010)
